Read-outs that look alike come from different tables or passages of the source. A value given as a limit tells only on which side of the number the result lay.

The results in this text go back to patent US9839618B2, “Compositions and methods relating to proliferative diseases” (The Penn State Research Foundation, priority 2010, dated 2017).

Test [1] relates to 1205 Lu metastatic melanoma cells. The test is described as follows: MTS assay viability IC50, 1205 Lu. In kind it is cell-based, human. The settings on record: for IC50: Homo sapiens, 1205Lu; for Selectivity ratio, fibroblasts versus 1205Lu: activity against fibroblasts FF2441 compared to melanoma cells. The protocol:
(§1) The efficacy of leelamine to kill other cancer types is measured and the IC50 for cell lines derived from carcinomas of breast, lung, prostate, connective tissue, pancreas and colon determined. The MTS assay as described in Sharma, A. et al., Clin Cancer Res, 2009, 15:1674-85; and Madhunapantula, S. V. et al., Mol Cancer Ther, 2008, 7:1297-308 is used to establish the IC50 at 24, 48 and 72 hours of leelamine treatment for normal human epidermal melanocytes (FOM103), normal skin fibroblast cells (FF2441), normal skin keratinocytes (HFK) and compared to melanocytic lesion cells from the radial-, vertical- and metastatic melanoma stages. 5×10^3 cells per well in 100 μL of media are plated and grown in a 96-well plate for 48 to 72 hours and treated with either DMSO vehicle control or 0.62 to 40 μmol/L of leelamine for 24, 48 or 72 hours. IC50 values for each compound in μmol/L for respective cell lines are measured from three independent experiments using GraphPad Prism version 4.01 (GraphPad Software, La Jolla, Calif.). Leelamine is found to be not toxic to normal cells and effective to kill melanoma cells as well as non-melanoma cancer cells as shown in Table 1 in FIG. 20. Leelamine is 3- to 4-fold more specific at killing metastatic melanoma than normal cells, supporting cancer therapeutic utility at concentrations<2 μmol/L.
5×10^3 cells per well in 100 μL of media are plated and grown in a 96-well plate for 48 to 72 hours and treated with either DMSO vehicle control or 0.62 to 40 μmol/L of leelamine for 24, 48 or 72 hours. IC50 values for each compound in μmol/L for respective cell lines are measured from three independent experiments using GraphPad Prism version 4.01 (GraphPad Software, La Jolla, Calif.).
The IC50 and effect of liposomal preparations of leelamine on viability of normal human melanocytes, fibroblasts and melanoma cells UACC 903 and 1205 Lu are measured using the MTS assay (Promega, Madison, Wis.). Empty liposomes or liposomes containing abietic acid are used as controls. 5×10^3 cells per well in 100 μL of media are plated and grown in a 96-well plate for 48 or 72 hours for melanoma and normal cell lines, respectively. The cells are then treated with 0.62 to 40 μmol/L of liposome alone, a liposomal preparation of abietic acid, or with Nanolipolee-007 for 24 hours. IC50 values for each liposome in μmol/L for respective cell lines are measured from three independent experiments using GraphPad Prism version 4.01 (GraphPad Software, La Jolla, Calif.). Nanolipolee-007 retains the growth inhibitory activity of leelamine in killing melanoma cells in culture and specifically kills melanoma cells compared to normal cells, FIG. 24.
Dehydroabietylamine, its N-substituted derivatives and the corresponding dihydroabietylamine and its N-substituted derivatives are tested for their capability to inhibit cell growth of cancer cell lines, including melanoma (UACC 903, 1205Lu), breast (MCF-7), fibrosarcoma (HT-1080), colon (Caco-2), and prostate (PC-3) cancer cell lines. Viability and IC50 of normal human fibroblasts and cell lines from melanoma and other malignancies following treatment with all the agents are measured using the MTS assay (Promega, Madison, Wis.). Human fibroblast FF2441 cells, metastatic melanoma cell lines 1205 Lu and UACC 903 as well as cancer cell lines representing sarcoma (HT-1080), prostate (PC-3, LNCaP), breast (MCF-7) and lung (A-549) are maintained in DMEM (Invitrogen, Carlsbad, Calif.) supplemented with 10% FBS (Hyclone, Logan, Utah) in a 5% CO2 atmosphere, humidified 37° C. incubator. 5×10^3 cells per well in 100 μL of media are plated and grown in a 96-well plate for 48 to 72 h and treated with either DMSO vehicle control or 0.62 to 40 μmol/L for 24, 48 or 72 h. IC50 values for each compound in […] for respective cell lines are measured from three independent experiments using GraphPad Prism version 4.01 (GraphPad Software, La Jolla, Calif.). […]
Background: Formazan colour is commonly taken as a measure of viable cells.

For a further test, the system named is cancer cell line. The test is described as follows: MTS assay viability IC50, A-459. The class given is cell-based. The settings on record: A459; Table 5; read-out: IC50 Liver (A-459). The protocol:
(§2) Dehydroabietylamine, its N-substituted derivatives and the corresponding dihydroabietylamine and its N-substituted derivatives are tested for their capability to inhibit cell growth of cancer cell lines, including melanoma (UACC 903, 1205Lu), breast (MCF-7), fibrosarcoma (HT-1080), colon (Caco-2), and prostate (PC-3) cancer cell lines. Viability and IC50 of normal human fibroblasts and cell lines from melanoma and other malignancies following treatment with all the agents are measured using the MTS assay (Promega, Madison, Wis.). Human fibroblast FF2441 cells, metastatic melanoma cell lines 1205 Lu and UACC 903 as well as cancer cell lines representing sarcoma (HT-1080), prostate (PC-3, LNCaP), breast (MCF-7) and lung (A-549) are maintained in DMEM (Invitrogen, Carlsbad, Calif.) supplemented with 10% FBS (Hyclone, Logan, Utah) in a 5% CO2 atmosphere, humidified 37° C. incubator. 5×10^3 cells per well in 100 μL of media are plated and grown in a 96-well plate for 48 to 72 h and treated with either DMSO vehicle control or 0.62 to 40 μmol/L for 24, 48 or 72 h. IC50 values for each compound in […] for respective cell lines are measured from three independent experiments using GraphPad Prism version 4.01 (GraphPad Software, La Jolla, Calif.). FIG. 52 is a graph showing IC50 values for leelamine and compounds 4a, 4b and 5a in treated fibroblasts (FF2441) compared to melanoma cells. Selectivity ratio here is defined as ratio of activity against fibroblasts compared to activity against melanoma cells. Leelamine is relatively selective with a ratio of >6 and >4 for UACC903 and 1205Lu melanoma cells. The selectivity ratio of compound 4a is ˜4 and ˜3 for UACC903 and 1205Lu and for compound 4b is ˜4 for both cell lines. The selectivity ratio of compound 5a is ˜4 for UACC903 and >2 for 1205Lu cells.

Test [2] deals with FF2441 normal human fibroblasts. As to the kind of experiment: MTS assay viability IC50, normal fibroblasts. The class given is cell-based. The protocol: as §1
5×10^3 cells per well in 100 μL of media are plated and grown in a 96-well plate for 48 to 72 hours and treated with either DMSO vehicle control or 0.62 to 40 μmol/L of leelamine for 24, 48 or 72 hours. IC50 values for each compound in μmol/L for respective cell lines are measured from three independent experiments using GraphPad Prism version 4.01 (GraphPad Software, La Jolla, Calif.). […]
as §2

Where [3] appears, read: Table 4, read-out: IC50 Metastatic Melanoma Cell line 1205Lu.
Where [4] appears, read: Table 6, read-out: IC50 Metastatic melanoma 1205 Lu.
The mark [5] stands for this setting: Homo sapiens, FF2441, Table 5, read-out: IC50 Fibroblast FF2441.

Turning to `CC(C)c1ccc2c(c1)CCC1[C@](C)(CNC(=O)C(F)(F)F)CCC[C@]21C` (stereo partly drawn) [Compound 5a, N-{[(1R,4aS)-1,4a-dimethyl-7-(propan-2-yl)-1,2,3,4,4a,9,10,10a-octahydrophenanthren-1-yl]methyl}-2,2,2-trifluoroacetamide], the IC50 is 2.08 ± 0.05 µM in test [1] (setting [3]), 2.08 ± 0.05 µM in test [1] (setting [4]), 9.7 ± 1.34 µM in the test on cancer cell line and 5.17 ± 0.02 µM in test [2] (setting [5]). Also, the “Selectivity ratio, fibroblasts versus 1205Lu” value (from here on “Selectivity ratio”) in test [1] is given as above 2.

For `CC(C)C1=CC2=CCC3[C@](C)(CN)CCC[C@]3(C)C2CC1` (stereo partly drawn) [Compound 4a, {[(1R,4aR)-1,4a-dimethyl-7-(propan-2-yl)-1,2,3,4,4a,4b,5,6,10,10a-decahydrophenanthren-1-yl]methyl}amine], the IC50 in test [1] (Example 8, read-out: IC50 1205Lu) was 2.87 µM; in test [1] (setting [3]), 2.87 ± 0.07 µM; in test [1] (setting [4]), 2.87 ± 0.07 µM; in the test with cancer cell line, 19.1 ± 3.87 µM; in test [2] (setting [5]) it was 8.33 ± 0.43 µM. Moreover, the “Selectivity ratio” value in test [1] is recorded as around 3.

As for `CC(C)c1ccc2c(c1)CCC1[C@](C)(CN)CCC[C@]21C` (stereo partly drawn) [Leelamine, [(1R,4aS)-1,4a-dimethyl-7-(propan-2-yl)-1,2,3,4,4a,9,10,10a-octahydrophenanthren-1-yl]methanamine], the values for the IC50 (in test [1] (setting [4]); in the test with cancer cell line; in test [2] (setting [5])) were 1.93 ± 0.16 µM, 9.27 ± 1.43 µM and 8.91 ± 0.57 µM, respectively. In test [1], the “Selectivity ratio” value is on record as above 4.

Turning to `CC(C)C1=CC2=CCC3[C@](C)(CCC[C@@]3(C)C(=O)O)C2CC1` (stereo partly drawn) [Abietic acid, (1R,4aR)-1,4a-dimethyl-7-(propan-2-yl)-1,2,3,4,4a,4b,5,6,10,10a-decahydrophenanthrene-1-carboxylic acid, reference compound], the IC50 in test [1] (setting [3]) was above 100 µM; in test [1] (setting [4]) it was above 100 µM; with cancer cell line, above 100 µM; in test [2] (Homo sapiens, FF2441, Table 4, read-out: IC50 Normal fibroblast FF2441), above 100 µM; in test [2] (setting [5]), above 100 µM; in test [2] (Table 6, read-out: IC50 Normal fibroblast FF2441), above 100 µM.

In general, IC50 refers to the midpoint of a concentration-inhibition curve.
